Results reported in patent US10975056B2 (GlaxoSmithKline Intellectual Property Development Limited, priority 2016, dated 2021).
Where a name gives a salt, the structure may show the parent alone. Read-outs that look alike come from different tables or passages of the source.

Key:
[1] = tested on: erythroid progenitor cells (EPCs); assay: Fetal hemoglobin (HbF) ELISA in day 7 erythroid progenitor cells; assay type: cell-based, human; details: Homo sapiens, Erythroid progenitor cell, HbF ELISA, day 7 EPCs, 5 days; read-out: EPC ELISA (pEC50 category) (converted);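 also: for fetal hemoglobin induction normalized to vehicle-treated cells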
In short: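 HbF induction was read by anti-HbF sandwich ELISA (HRP/TMB, OD450) on lysates and normalized to vehicle-treated cells. Cells were day 7 erythroid progenitors derived from human bone marrow CD34+ cells, seeded at 1,000/well with 3 U/mL rhEPO. Compound was given for 5 days at 37 °C at final concentrations […].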

[2] = target: DNMT1 (Homo sapiens, UniProt P26358); assay: DNMT1 biochemical activity, breaklight assay and/or SPA assay
Sequence of DNMT1 (P26358 whole entry, looked up): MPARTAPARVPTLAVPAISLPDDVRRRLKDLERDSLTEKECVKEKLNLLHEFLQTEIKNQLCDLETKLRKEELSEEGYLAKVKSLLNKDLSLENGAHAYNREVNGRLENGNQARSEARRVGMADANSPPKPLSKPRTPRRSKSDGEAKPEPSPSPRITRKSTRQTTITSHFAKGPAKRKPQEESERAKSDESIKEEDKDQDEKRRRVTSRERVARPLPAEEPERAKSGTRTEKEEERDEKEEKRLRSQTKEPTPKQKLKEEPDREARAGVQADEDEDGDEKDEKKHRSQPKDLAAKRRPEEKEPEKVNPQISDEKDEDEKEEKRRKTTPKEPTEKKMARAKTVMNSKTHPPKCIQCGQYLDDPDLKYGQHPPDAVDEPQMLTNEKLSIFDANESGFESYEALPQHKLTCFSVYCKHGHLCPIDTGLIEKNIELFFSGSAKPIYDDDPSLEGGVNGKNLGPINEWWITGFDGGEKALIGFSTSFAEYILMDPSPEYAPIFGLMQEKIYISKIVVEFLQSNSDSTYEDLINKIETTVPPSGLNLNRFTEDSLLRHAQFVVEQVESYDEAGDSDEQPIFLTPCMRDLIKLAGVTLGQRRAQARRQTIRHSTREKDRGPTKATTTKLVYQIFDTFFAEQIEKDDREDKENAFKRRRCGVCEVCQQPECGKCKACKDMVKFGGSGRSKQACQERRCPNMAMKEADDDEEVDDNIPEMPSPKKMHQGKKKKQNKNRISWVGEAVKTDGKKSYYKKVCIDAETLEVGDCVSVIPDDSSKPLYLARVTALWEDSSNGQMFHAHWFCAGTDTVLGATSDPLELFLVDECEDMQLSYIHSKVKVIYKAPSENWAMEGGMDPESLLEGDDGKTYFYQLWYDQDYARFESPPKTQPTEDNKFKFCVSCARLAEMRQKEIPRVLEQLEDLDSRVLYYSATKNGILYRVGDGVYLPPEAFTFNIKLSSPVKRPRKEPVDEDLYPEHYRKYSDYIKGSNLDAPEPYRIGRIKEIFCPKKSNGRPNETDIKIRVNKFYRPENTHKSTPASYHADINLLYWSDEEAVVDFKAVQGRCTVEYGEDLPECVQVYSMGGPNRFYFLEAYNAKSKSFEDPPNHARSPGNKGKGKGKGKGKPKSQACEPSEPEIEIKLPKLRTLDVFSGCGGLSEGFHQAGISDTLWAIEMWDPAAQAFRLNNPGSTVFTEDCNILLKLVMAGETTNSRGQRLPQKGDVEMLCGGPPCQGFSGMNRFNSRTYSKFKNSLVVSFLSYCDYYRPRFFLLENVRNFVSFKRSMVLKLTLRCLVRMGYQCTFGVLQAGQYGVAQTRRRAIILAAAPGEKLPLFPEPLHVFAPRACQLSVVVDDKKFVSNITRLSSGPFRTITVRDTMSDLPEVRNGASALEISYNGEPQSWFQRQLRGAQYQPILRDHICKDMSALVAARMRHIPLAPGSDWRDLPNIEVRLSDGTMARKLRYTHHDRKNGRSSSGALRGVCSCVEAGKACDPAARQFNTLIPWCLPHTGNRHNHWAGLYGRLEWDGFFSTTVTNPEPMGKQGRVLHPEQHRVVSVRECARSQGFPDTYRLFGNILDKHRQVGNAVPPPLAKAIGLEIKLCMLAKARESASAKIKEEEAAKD

[3] = binned activity in either the breaklight or the SPA assay
[4] = binned activity in either the breaklight or the SPA assay, read-out: DNMT1 BioChemical (pIC50 category) (converted)
[5] = breaklight assay and/or SPA assay, repeated experimental runs, read-out: average pIC50 against DNMT1 (converted)

Row | EC50 [1] [µM] | DNMT1 BioChemical (pIC50 category) [2, 3] | IC50 [2, 4] [µM] | IC50 [2, 5] [µM] | SMILES | average pIC50 against DNMT1 ([2]; breaklight assay and/or SPA assay, repeated experimental runs)
1 | < 0.316 | D (Category D: ≥6.5) |  |  | CCc1c(C#N)c(SC(C(N)=O)c2ccccc2)nc(N(C)Cc2nnc[nH]2)c1C#N (stereo not shown) [Example 341, 2-((6-(((4H-1,2,4-Triazol-3-yl)methyl)(methyl)amino)-3,5-dicyano-4-ethylpyridin-2-yl)thio)-2-phenylacetamide] | 
2 | 0.316 to 1 |  | 1 to 31.6 |  | CCc1c(C#N)c(SC(C(N)=O)c2ccc(F)nc2)nc(N2CCCN(C)CC2)c1C#N (stereo not shown) [Example 228] | 
3 | < 0.316 |  | < 0.316 |  | CCc1c(C#N)c(SC(C(N)=O)c2ccccc2)nc(N2CC[C@@H](NC(=O)OC(C)(C)C)[C@@H](F)C2)c1C#N (single isomer, unassigned) [Example 534, rel-tert-butyl (cis)-1-(6-((2-amino-2-oxo-1-phenylethyl)thio)-3,5-dicyano-4-ethylpyridin-2-yl)-3-fluoropiperidin-4-yl)carbamate] | 
4 | 1 to 31.6 |  | 0.316 to 1 |  | CCc1c(C#N)c(SCc2cnn(CC(O)CO)c2)nc(N2CCC(N)CC2)c1C#N (stereo not shown) [Example 380, 2-(4-Aminopiperidin-1-yl)-6-(((1-(2,3-dihydroxypropyl)-1H-pyrazol-4-yl)methyl)thio)-4-ethylpyridine-3,5-dicarbonitrile, Hydrochloride] | 
5 | > 31.6 |  | 1 to 31.6 |  | CCc1c(C#N)c(S[C@@H](C(N)=O)c2ccccc2)nc(N2CC[C@H](OP(=O)(O)O)C2)c1C#N [Example 418, (S)-1-(6-(((R-2-amino-2-oxo-1-phenylethyl)thio-3,5-dicyano-4-ethylpyridin-2-yl)pyrrolidin-3-yldihydrogen phosphate] | 
6 | 1 to 31.6 |  | 0.316 to 1 |  | CCc1c(C#N)c(SC(C(N)=O)c2ccccc2)nc(N2CCC(O)(C(N)=O)CC2)c1C#N (stereo not shown) [Example 258, 1-(6-((2-Amino-2-oxo-1-phenylethyl)thio)-3,5-dicyano-4-ethylpyridin-2-yl)-4-hydroxy piperidine-4-carboxamide] | 
7 | 1 to 31.6 |  | 0.316 to 1 |  | CCCOc1c(C#N)c(SC(C(N)=O)c2ccccc2)nc(N2CCCN(CCO)CC2)c1C#N (stereo not shown) [Example 213, 2-((3,5-Dicyano-6-(4-(2-hydroxyethyl)-1,4-diazepan-1-yl)-4-propoxypyridin-2-yl)thio)-2-phenylacetamide] | 
8 | 1 to 31.6 |  | 0.316 to 1 | 0.316 to 1 | CCNC(=O)NCc1ccc(CSc2nc(N3CCCN(C)CC3)c(C#N)c(CC)c2C#N)cc1 [Example 99, 1-(4-(((3,5-Dicyano-4-ethyl-6-(4-methyl-1,4-diazepan-1-yl)pyridin-2-yl)thio)methyl)benzyl)-3-ethylurea] | 
9 | < 0.316 | D (Category D: ≥6.5) |  |  | CCc1c(C#N)c(SC(C(N)=O)c2ccccc2)nc(N2CCC(N(C)CC)CC2)c1C#N (stereo not shown) [Example 549, 2-((3,5-dicyano-4-ethyl-6-(4-(ethyl(methyl)amino)piperidin-1-yl)pyridin-2-yl)thio)-2-phenylacetamide] | 
10 | < 0.316 | D (Category D: ≥6.5) |  |  | CCc1c(C#N)c(SC(C(N)=O)c2ccccc2)nc(N2CCC[C@H](NCC(C)(C)C)C2)c1C#N (stereo partly drawn) [Example 651, 2-((3,5-dicyano-4-ethyl-6-((S)-3-(neopentylamino)piperidin-1-yl)pyridin-2-yl)thio)-2-phenylacetamide] | 
11 | < 0.316 |  | 0.316 to 1 |  | CCc1c(C#N)c(SC(C(N)=O)c2cccc(C(=O)c3ccccc3)c2)nc(N2CCCN(CCO)CC2)c1C#N (stereo not shown) [Example 244, 2-(3-Benzoylphenyl)-2-((3,5-dicyano-4-ethyl-6-(4-(2-hydroxyethyl)-1,4-diazepan-1-yl)pyridin-2-yl)thio)acetamide] | 
12 | 0.316 to 1 | D (Category D: ≥6.5) |  |  | CCc1c(C#N)c(SC(C(N)=O)c2ccc(C(F)(F)F)cc2)nc(N2CCC(N)CC2)c1C#N (stereo not shown) [Example 410, 2-((6-(4-aminopiperidin-1-yl)-3,5-dicyano-4-ethylpyridin-2-yl)thio)-2-(4-(trifluoromethyl)phenyl)acetamide] | 
13 | 1 to 31.6 |  | 0.316 to 1 |  | CCc1c(C#N)c(SCc2ccc(CNC(=O)CO)cc2)nc(N(C)CC(N)=O)c1C#N [Example 371] | 
14 | 1 to 31.6 |  | 0.316 to 1 |  | CCc1c(C#N)c(SC(C(N)=O)c2ccccc2)nc(N2CCC(O)C2)c1C#N (stereo not shown) [Example 370, 2-((3,5-Dicyano-4-ethyl-6-(3-hydroxypyrrolidin-1-yl)pyridin-2-yl)thio)-2-phenylacetamide] | 
15 | 1 to 31.6 | D (Category D: ≥6.5) |  |  | CCOc1c(C#N)c(SCc2ccc(CNC(C)=O)cc2)nc(N2CCCN(C)CC2)c1C#N [Example 105, N-(4-(((3,5-Dicyano-4-ethoxy-6-(4-methyl-1,4-diazepan-1-yl)pyridin-2-yl)thio)methyl)benzyl)acetamide] | 
16 | 1 to 31.6 |  | 0.316 to 1 | 0.316 to 1 | N#Cc1c(SC(C(N)=O)c2ccccc2)nc(N2CCNC(=O)CC2)c(C#N)c1C1CC1 (stereo not shown) [Example 110, 2-{[3,5-Dicyano-4-cyclopropyl-6-(5-oxo-1,4-diazepan-1-yl)pyridin-2-yl]sulfanyl}-2-phenylacetamide] | 
17 | 1 to 31.6 | D (Category D: ≥6.5) |  |  | CCc1c(C#N)c(SC(C(N)=O)c2ccccc2)nc(N(C)CC(=O)NCCn2cnnc2)c1C#N (stereo not shown) [Example 686, N-(2-(4H-1,2,4-triazol-4-yl)ethyl)-2-((6-((2-amino-2-oxo-1-phenylethyl)thio)-3,5-dicyano-4-ethylpyridin-2-yl)(methyl)amino)acetamide] | 
18 | 1 to 31.6 |  | 0.316 to 1 |  | CCc1c(C#N)c(SC(C(N)=O)c2ccc(S(=O)(=O)NC)cc2)nc(N2CCCN(C)CC2)c1C#N (stereo not shown) [Example 378] | 
19 | < 0.316 | D (Category D: ≥6.5) |  |  | CCc1c(C#N)c(SC(C(N)=O)c2ccccc2)nc(N2CCC(NCc3ccc(F)cc3)CC2)c1C#N (stereo not shown) [Example 474, 2-((3,5-dicyano-4-ethyl-6-(4-((4-fluorobenzyl)amino)piperidin-1-yl)pyridin-2-yl)thio)-2-phenylacetamide] | 
20 | 1 to 31.6 |  | 0.316 to 1 |  | CCc1c(C#N)c(SCc2ccc(CNC(C)=O)cc2)nc(N2CCC(NC(C)=O)CC2)c1C#N [Example 290, N-(1-(6-((4-(Acetamidomethyl)benzyl)thio)-3,5-dicyano-4-ethylpyridin-2-yl)piperidin-4-yl)acetamide] | 
21 | < 0.316 | D (Category D: ≥6.5) |  |  | CCc1c(C#N)c(SC(C(N)=O)c2ccccc2)nc(N(C)CC(=O)N(C)CCO)c1C#N (stereo not shown) [Example 606, 2-((6-((2-amino-2-oxo-1-phenylethyl)thio)-3,5-dicyano-4-ethylpyridin-2-yl)(methyl)amino)-N-(2-hydroxyethyl)-N-methylacetamide] | 

Row | SMILES | EC50 [1] [µM] | DNMT1 BioChemical (pIC50 category) [2, 3] | IC50 [2, 4] [µM] | IC50 [2, 5] [µM] | average pIC50 against DNMT1 ([2]; breaklight assay and/or SPA assay, repeated experimental runs)
22 | CCc1c(C#N)c(SC(C(N)=O)c2ccccc2)nc(N2CCC(OCCN)CC2)c1C#N (stereo not shown) [Example 149, 2-((6-(4-(2-Aminoethoxy)piperidin-1-yl)-3,5-dicyano-4-ethylpyridin-2-yl)thio)-2-phenylacetamide, Trifluoroacetic Acid Salt] | < 0.316 | D (Category D: ≥6.5) |  |  | > 6.5
23 | CCc1c(C#N)c(SC(C(N)=O)c2ccccc2)nc(N(C)CCN)c1C#N (stereo not shown) [Example 144, 2-((6-((2-Aminoethyl)(methyl)amino)-3,5-dicyano-4-ethylpyridin-2-yl)thio)-2-phenylacetamide, Trifluoroacetic Acid Salt] | < 0.316 | D (Category D: ≥6.5) |  |  | 
